In US20200289514A1, “Novel Pyrazolo Pyrimidine Derivatives” (Novartis AG, priority 2015, published 2020):
Values after ≈ are worked out from the molar mass of the structure shown. Where two headings read alike, the source gives them in different places.

What was measured:
[1] = tested on: Human IL2 promoter; assay: Human IL2 promoter reporter gene assay (RGA) in Jurkat cells; assay type: cell-based; settings: Jurkat clone K22 290_H23, anti-CD28 mAb + PMA, 5.5 h
Experimental: Human IL2 Promoter Reporter Gene Assay (RGA) in Jurkat Cells
The transfected Jurkat clone K22 290_H23 was propagated in RPMI 1640 supplemented with 10% heat inactivated fetal calf serum, 50 μM 2-mercaptoethanol and 1 mg/ml Geneticin. The cell concentration should not exceed 1×10e6/ml during culturing. The cells should not exceed passage 30. Prior to the assay the cells were washed and prepared to the concentration of 2×10e6 cells/ml.
Compound dilutions were made as 2×-concentrated solutions then diluted ½ by addition to cells. Two hundred and fifty μl of compound dilution and 250 μl of cells were mixed together in wells of a 96-deep well plate. Cells/compounds premix were incubated 30 min at 37° C. and 5% CO2 directly in the deep well plate.
After pre-incubation of cells with compounds, cells were stimulated with anti-CD28 mAb (clone 15E8) at 3 μg/ml+PMA at 1 μg/ml. Both co-stimulants were diluted in culture medium at a 10×-concentrated solution. 10 μl of co-stimulants were pipetted into the white 96-well plates and 100 μl of cell/compound mix was immediately added in duplicates. The cells were stimulated for 5.5 h at 37° C. and 5% CO2.
After cell stimulation, 50 μl of BriteLitePlus reagent (Perkin Elmer) was added to each well and the bioluminescence was measured with a Wallac EnVision reader (Perkin Elmer).

[2] = molecular target: T1, C-domain of MALT1 (amino acids 329-824) (Homo sapiens, UniProt Q9UDY8); assay: MALT1 Biochemical Assay - Version 1 (fluorescence lifetime)
T1 sequence (Q9UDY8 329-824): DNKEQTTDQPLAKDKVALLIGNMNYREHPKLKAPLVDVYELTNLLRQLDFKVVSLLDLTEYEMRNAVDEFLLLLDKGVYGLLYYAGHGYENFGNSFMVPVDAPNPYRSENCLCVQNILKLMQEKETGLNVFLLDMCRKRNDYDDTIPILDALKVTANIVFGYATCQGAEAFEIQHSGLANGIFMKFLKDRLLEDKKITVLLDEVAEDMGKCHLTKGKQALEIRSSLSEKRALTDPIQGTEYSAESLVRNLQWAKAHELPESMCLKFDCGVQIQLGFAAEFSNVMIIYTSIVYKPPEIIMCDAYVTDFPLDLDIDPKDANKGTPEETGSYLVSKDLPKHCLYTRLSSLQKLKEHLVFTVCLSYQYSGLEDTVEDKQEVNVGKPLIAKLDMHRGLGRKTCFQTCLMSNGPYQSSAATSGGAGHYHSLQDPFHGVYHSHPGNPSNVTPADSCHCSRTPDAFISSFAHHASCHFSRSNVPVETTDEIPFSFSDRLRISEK
Experimental: The readout parameter is the increase of fluorescence lifetime over time, proportional to enzyme activity.
The assay employs a short peptide substrate labeled with the single fluorophore PT14 as a fluorescence lifetime probe sensitive to the cleavage state of the substrate (PT14: 6-(9-oxo-9H-acridin-10-yl)-hexanoate, AssayMetrics, UK). […] Test compounds were dissolved in 100% (v/v) DMSO or a mixture containing 90% (v/v) DMSO and 10% (v/v) H2O at a stock concentration of 100 mM. Serial dilutions of test compounds were prepared using either 100% (v/v) DMSO or a mixture containing 90% (v/v) DMSO and 10% (v/v) H2O.
where y is the %-inhibition at the inhibitor concentration, x. A1 is the lowest inhibition value, and A2 the maximum inhibition value. The exponent, p, is the Hill coefficient.

[3] = Solubility in aqueous and biorelevant media; assay type: physicochemical

SMILES	IC50 [1] [nM]	IC50 [2] [nM]	other results
CO[C@@H](C)c1c(NC(=O)Nc2cncc(C#N)c2)cnc2cc(C)nn12 [Example 1, (S)-1-(5-cyanopyridin-3-yl)-3-(7-(1-methoxyethyl)-2-methylpyrazolo [1,5-a]pyrimidin-6-yl)urea]	133	92	solubility ([3]; 19.12 mM Sodium Maleate Fasted state simulated intestinal fluid (FaSSIF) pH 6.5, [pH] 6.63, read-out: Solubility (mg/mL) [pH]): 0.018 mg/mL (≈ 51.2 µM); solubility ([3]; FaSSIF pH 6.5, [pH] 6.56, read-out: Solubility (mg/mL) [pH]): 0.022 mg/mL (≈ 62.6 µM); solubility ([3]; Fed state intestinal fluid FeSSIF pH 5.8, [pH] 5.85, read-out: Solubility (mg/mL) [pH]): 0.027 mg/mL (≈ 76.8 µM); solubility ([3]; Simulated Gastric Fluid (SGF) pH 2.0, [pH] 2.00, read-out: Solubility (mg/mL) [pH]): 0.024 mg/mL (≈ 68.3 µM); solubility ([3]; Water, [pH] 7.65, read-out: Solubility (mg/mL) [pH]): 0.019 mg/mL (≈ 54.1 µM); solubility ([3]; aqueous buffer, 100 mM Sodium Acetate pH 4.0, [pH] 4.04, read-out: Solubility (mg/mL) [pH]): 0.019 mg/mL (≈ 54.1 µM); solubility ([3]; simulated gastric fluid, HCl/KCl pH 1.0, [pH] 1.10, read-out: Solubility (mg/mL) [pH]): 0.049 mg/mL (≈ 139 µM)
CO[C@@H](C)c1c(NC(=O)Nc2cnc(-n3nccn3)c(Cl)c2)cnc2cc(Cl)nn12 [Example 5, (S)-1-(5-chloro-6-(2H-1,2,3-triazol-2-yl)pyridin-3-yl)-3-(2-chloro-7-(1-methoxyethyl)pyrazolo[1,5-a]pyrimidin-6-yl)urea]	19	–	solubility ([3]; Fasted state simulated intestinal fluid (FaSSIF), [pH] 6.59, read-out: Solubility (mg/mL) [pH]): 0.0044 mg/mL (≈ 9.82 µM); solubility ([3]; Fed state intestinal fluid (FeSSIF), [pH] 6.87, read-out: Solubility (mg/mL) [pH]): 0.0082 mg/mL (≈ 18.3 µM); solubility ([3]; Simulated Gastric Fluid (SGF), [pH] 2.55, read-out: Solubility (mg/mL) [pH]): 0.0168 mg/mL (≈ 37.5 µM); solubility ([3]; Water, [pH] 7.39, read-out: Solubility (mg/mL) [pH]): 0.005 mg/mL (≈ 11.2 µM); solubility ([3]; medium of pH 1.2 (composition not named), simulated gastric fluid, pH 1.2, [pH] 1.17, read-out: Solubility (mg/mL) [pH]): 0.0038 mg/mL (≈ 8.48 µM); solubility ([3]; medium of pH 3.0 (composition not named), aqueous buffer, pH 3.0, [pH] 3.14, read-out: Solubility (mg/mL) [pH]): 0.0052 mg/mL (≈ 11.6 µM); solubility ([3]; medium of pH 4.7 (composition not named), aqueous buffer, pH 4.7, [pH] 4.71, read-out: Solubility (mg/mL) [pH]): 0.0048 mg/mL (≈ 10.7 µM); solubility ([3]; medium of pH 7.4 (composition not named), aqueous buffer, pH 7.4, [pH] 7.34, read-out: Solubility (mg/mL) [pH]): 0.004 mg/mL (≈ 8.92 µM); solubility ([3]; medium of pH 9.0 (composition not named), aqueous buffer, pH 9.0, [pH] 8.09, read-out: Solubility (mg/mL) [pH]): 0.0055 mg/mL (≈ 12.3 µM)
CO[C@@H](C)c1c(NC(=O)Nc2cncc(Cl)c2)cnc2cc(Cl)nn12 [Example 35, (S)-1-(2-chloro-7-(1-methoxyethyl)pyrazolo [1,5-a]pyrimidin-6-yl)-3-(5-chloropyridin-3-yl)urea]	17	10	–
CO[C@@H](C)c1c(NC(=O)Nc2cncc(Cl)c2)cnc2cc(F)nn12 [Example 32, (S)-1-(5-chloro-pyridin-3-yl)-3-(2-fluoro-7-(1-methoxyethyl)pyrazolo [1,5-a]pyrimidin-6-yl)urea]	40	11	–
COc1ncc(NC(=O)Nc2cnc3cc(Cl)nn3c2[C@@H](OC)[C@H](C)OC)cc1C#N [Example 36, 1-(2-chloro-7-((1R, 2S)-1,2-dimethoxypropyl)pyrazolo[1,5-a]pyrimidin-6-yl)-3-(5-cyano-6-methoxypyridin-3-yl)urea]	35	3	–
COc1ncc(NC(=O)Nc2cnc3cc(F)nn3c2[C@H](C)OC)cc1C#N [Example 6, (S)-1-(5-cyano-6-methoxypyridin-3-yl)-3-(2-fluoro-7-(1-methoxyethyl)pyrazolo[1,5-a]pyrimidin-6-yl)urea]	41	4	–
COc1ncc(NC(=O)Nc2cnc3cc(Cl)nn3c2[C@H](C)OC)cc1C#N [Example 16, (S)-1-(2-chloro-7-(1-methoxyethyl)pyrazolo [1,5-a]pyrimidin-6-yl)-3-(5-cyano-6-methoxypyridin-3-yl)urea]	20	3	–
COc1ncc(NC(=O)Nc2cnc3cc(C)nn3c2[C@@H](OC)C(C)C)cc1C#N [Example 22, (S)-1-(5-cyano-6-methoxypyridin-3-yl)-3-(7-(1-methoxy-2-methylpropyl)-2-methylpyrazolo[1,5-a]pyrimidin-6-yl)urea]	25	7	–
CO[C@@H](C)c1c(NC(=O)Nc2ccnc(C(F)F)c2)cnc2cc(F)nn12 [Example 2, (S)-1-(2-(difluoromethyl)pyridin-4-yl)-3-(2-fluoro-7-(1-methoxyethyl)pyrazolo[1,5-a]pyrimidin-6-yl)urea]	47	18	solubility ([3]; Free form, Fasted state simulated intestinal fluid FaSSIF (V2) pH 6.5, [pH] 6.64, read-out: Solubility mg/mL [pH] Free form): 0.041 mg/mL (≈ 108 µM); solubility ([3]; Free form, Fed state intestinal fluid FeSSIF (V2) pH 5.8, [pH] 5.85, read-out: Solubility mg/mL [pH] Free form): 0.093 mg/mL (≈ 245 µM); solubility ([3]; Free form, Simulated Gastric Fluid (SGF) pH 2.0, [pH] 1.99, read-out: Solubility mg/mL [pH] Free form): 0.338 mg/mL (≈ 889 µM); solubility ([3]; Free form, Water, [pH] 7.76, read-out: Solubility mg/mL [pH] Free form): 0.029 mg/mL (≈ 76.2 µM); solubility ([3]; aqueous buffer, Free form, 19.12 mM Sodium Maleate (blank FaSSIF) pH 6.5, [pH] 6.61, read-out: Solubility mg/mL [pH] Free form): 0.026 mg/mL (≈ 68.4 µM); solubility ([3]; aqueous buffer, Free form, 100 mM Sodium Acetate pH 4.0, [pH] 3.99, read-out: Solubility mg/mL [pH] Free form): 0.032 mg/mL (≈ 84.1 µM); solubility ([3]; simulated gastric fluid, Free form, HCl/KCl pH 1.0, [pH] 1.12, read-out: Solubility mg/mL [pH] Free form): > 2 mg/mL
CC(=O)N1CC[C@@H](O[C@@H](C)c2c(NC(=O)Nc3cnc(-n4nccn4)c(Cl)c3)cnc3cc(Cl)nn23)C1 [Example 13, 1-(7-((S)-1-(((R)-1-acetylpyrrolidin-3-yl)oxy)ethyl)-2-chloropyrazolo[1,5-a]pyrimidin-6-yl)-3-(5-chloro-6-(2H-1,2,3-triazol-2-yl)pyridin-3-yl)urea]	88	23	–
COCCOc1ncc(Cl)cc1NC(=O)Nc1cnc2cc(Cl)nn2c1[C@H](C)OC [Example 21, (S)-1-(5-chloro-2-(2-methoxyethoxy)pyridin-3-yl)-3-(2-chloro-7-(1-methoxyethyl)-pyrazolo[1,5-a]pyrimidin-6-yl)urea]	47	9	–
CNC(=O)c1ncc(NC(=O)Nc2cnc3cc(Cl)nn3c2[C@H](C)OC)cc1Cl [Example 34, (S)-3-chloro-5-(3-(2-chloro-7-(1-methoxyethyl)pyrazolo [1,5-a]pyrimidin-6-yl)ureido)-N-methylpicolinamide]	28	7	–
CO[C@@H](C)c1c(NC(=O)Nc2cc(C(C)O)nc(C(F)(F)F)c2)cnc2cc(F)nn12 (stereo partly drawn) [Example 17, 1-(2-fluoro-7-((S)-1-methoxyethyl)pyrazolo [1,5-a]pyrimidin-6-yl)-3-(2-(1-hydroxyethyl)-6-(trifluoromethyl)pyridin-4-yl)urea]	87	20	–
CO[C@@H](C)c1c(NC(=O)Nc2cc(Cl)cnc2OC[C@H](C)N)cnc2cc(Cl)nn12 [Example 41, 1-(2-((S)-2-aminopropoxy)-5-chloropyridin-3-yl)-3-(2-chloro-7-((S)-1-methoxyethyl)pvrazolo[1,5-a]pyrimidin-6-yl)urea]	50	21	–
CO[C@@H](C)c1c(NC(=O)Nc2cnc(-n3nccn3)c(C#N)c2)cnc2cc(Cl)nn12 [Example 11, (S)-1-(2-chloro-7-(1-methoxyethyl)pyrazolo[1,5-a]pyrimidin-6-yl)-3-(5-cyano-6-(2H-1,2,3-triazol-2-yl)pyridin-3-yl)urea]	12	2	–
CO[C@H](c1c(NC(=O)Nc2cnc(-n3nccn3)c(C(F)(F)F)c2)cnc2cc(Cl)nn12)C(C)C [Example 8, (S)-1-(6-(2H-1,2,3-triazol-2-yl)-5-(trifluoromethyl)pyridin-3-yl)-3-(2-chloro-7-(1-methoxy-2-methylpropyl)pyrazolo [1,5-a]pyrimidin-6-yl)urea]	38	2	–
